Several values for one entry are separate records, joined by “and”; a condition that tells them apart may be missing. Identical values can stand only once.
Tests used:
Conditions in all cases: in vivo
[1] = tested on: three grassy weeds (wild oat, watergrass, foxtail); design: species or system Avena fatua, Echinochloa crusgalli, Setaria viridis
yellow nutsedge [2] = tested on: yellow nutsedge; design: species or system Cyperus esculentus
[3] = tested on: three broadleaf weeds (morning glory, mustard, velvetleaf); design: species or system Ipomoea purpurea, Brassica kaber, Abutilon theophrasti
[4] = tested on: three broadleaf weeds (morning glory, mustard, velvetleaf); design: species or system Ipomoea purpurea, Brassica kaber, Abutilon theophrasti; remark: listed apart in the source
yellow nutsedge [5] = tested on: yellow nutsedge; design: species or system Cyperus esculentus; remark: listed apart in the source
[6] = tested on: three grassy weeds (wild oat, watergrass, foxtail); design: species or system Avena fatua, Echinochloa crusgalli, Setaria viridis; remark: listed apart in the source

Row | Compound | % Control, Post-emergence, GR avg. [1] | % Control, Pre-emergence, NS (yellow nutsedge [2]) | % Control, Pre-emergence, BL avg. [3] | % Control, Post-emergence, BL avg. [4] | % Control, Post-emergence, NS (yellow nutsedge [5]) | % Control, Pre-emergence, GR avg. [6]
1 | CCCSP(=O)(N(CC)CCC(C)C)N(CC)CCC(C)C [Compound 51] | 70% and 45% | 0% | 8% | 95% and 100% | 0% | 0%
2 | CCCSP(=O)(N(CCC)CCC)N(CCC)c1ccccc1C(C)C (stereo not drawn) [Compound 57] | 20% and 16% | 0% | 0% | 70% and 60% | 0% | 0%
3 | CCCSP(=O)(N(CCC)CCC)N(C)c1c(F)c(F)cc(F)c1F (stereo not drawn) [Compound 53] | 75% and 43% | 0% | 10% | 100% | 0% | 0%
4 | CCCSP(=O)(N(CCC)CCC)N(CCC)c1ccc(C(C)C)cc1 (stereo not drawn) [Compound 59] | 10% and 6% | 0% | 0% | 50% and 55% | 0% | 0%

— patent US5189169A (priority 1991, dated 1993)
